According to paper PMC8940841, “A metabolically stable PET tracer for imaging synaptic vesicle protein 2A: synthesis and preclinical characterization of [^18F]SDM-16” (European Journal of Nuclear Medicine and Molecular Imaging, 2021):
Read-outs that look alike come from different tables or passages of the source. Each block holds one compound with its values, some of them ahead of it.

Experiments:
human SV2A = human SV2A (Homo sapiens, UniProt Q7L0J3); parameters: Duplicate samples of human frontal cortex gray matter were homogenized in PBS buffer; from tissue; host or cells: human frontal cortex gray matter homogenate; conditions: other SV2A ligands; read-out: Ki; cited from earlier work
Chain of human SV2A (Q7L0J3 whole entry): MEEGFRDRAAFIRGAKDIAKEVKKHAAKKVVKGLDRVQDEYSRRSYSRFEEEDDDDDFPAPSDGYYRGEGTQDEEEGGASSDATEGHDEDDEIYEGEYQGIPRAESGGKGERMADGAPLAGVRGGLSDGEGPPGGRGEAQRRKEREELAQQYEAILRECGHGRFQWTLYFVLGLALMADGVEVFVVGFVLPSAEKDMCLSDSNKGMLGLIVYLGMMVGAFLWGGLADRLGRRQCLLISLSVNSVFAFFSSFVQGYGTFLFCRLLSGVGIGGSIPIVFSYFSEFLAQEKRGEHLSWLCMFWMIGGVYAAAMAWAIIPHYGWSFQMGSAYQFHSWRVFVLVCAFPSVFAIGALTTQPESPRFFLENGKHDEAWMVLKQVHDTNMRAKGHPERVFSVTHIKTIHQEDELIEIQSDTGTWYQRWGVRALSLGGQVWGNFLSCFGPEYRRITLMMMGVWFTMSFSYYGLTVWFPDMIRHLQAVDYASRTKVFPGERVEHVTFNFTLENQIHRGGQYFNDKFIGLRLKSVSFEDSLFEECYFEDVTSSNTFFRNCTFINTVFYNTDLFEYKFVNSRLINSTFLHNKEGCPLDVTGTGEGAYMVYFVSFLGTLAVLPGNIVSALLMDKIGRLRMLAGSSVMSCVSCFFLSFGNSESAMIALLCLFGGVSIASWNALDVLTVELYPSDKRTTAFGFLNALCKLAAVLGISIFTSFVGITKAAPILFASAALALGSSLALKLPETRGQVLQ

[1] = Measurement of lipophilicity (octanol / PBS pH 7.4); format: physicochemical; conditions: for logP: octanol/PBS pH 7.4
Protocol: The logP of [^18F]SDM-16 was determined by a method modified from previously published procedures. Briefly, an aliquot of […] (10 µCi) of the radioligand was added to a 2-mL microtube containing 0.8 mL of octanol and 0.8 mL of 1 × phosphate buffered saline (1 × PBS, pH 7.4). The mixture was vortexed for 30 s and then centrifuged at 2000 g for 2 min. A subsample of the octanol (0.1 mL) and 1 × PBS (0.5 mL) layers was evaluated with a gamma counter. The major portion of the octanol layer (0.5 mL) was diluted with another 0.3 mL of octanol, mixed with a fresh portion of 0.8 mL of PBS, vortexed, centrifuged, and analyzed as described above. This process was repeated until consistent log P values were obtained, with five consecutive equilibration procedures being performed for each logP measurement. Four separate measurements were performed for [^18F]SDM-16 on different days.

[2] = Plasma free fraction (fp) by ultrafiltration; format: in vitro ADME, rhesus monkey; conditions: monkey, plasma (separated from spiked whole blood)
Protocol: The unbound fraction of [^18F]SDM-16 in plasma (fp) of rhesus monkey was measured in triplicate using the ultrafiltration method. Briefly, [^18F]SDM-16 solution was added to 3 mL of whole blood. After incubation at ambient temperature for 5 min, the blood sample was centrifuged at 3900 rpm for 5 min. A sample of the supernatant plasma (0.3 mL) was loaded onto the reservoir of a Centrifree® Ultrafiltration device (Merck Millipore Ltd. Tullagreen, Carrigtwohill, Co. Cork, IRELAND) in triplicate and centrifuged at 1228 g for 20 min. The fp value was calculated as the ratio of radioactivity in the filtrate to that in the plasma.

[3] = Plasma radiometabolite analysis during PET scans; format: in vivo, rhesus monkeys; conditions: 30 min p.i.
Protocol: Arterial blood samples were collected during the PET scans to measure the radioactivity in plasma for generation of the metabolite-corrected arterial plasma input function. Plasma radiometabolite analysis was performed using the column-switching method, following a published protocol. Briefly, arterial blood samples were collected at 3-, 8-, 15-, 30-, 60-, 90-, 120-, and 180-min post-injection (p. i.), treated with urea (8 M), filtered, and injected onto a self-packed short column (4.6 × 19 mm) eluting with 1% MeCN in water at a flow rate of 2 mL/min. The sample was then back flushed onto a Gemini-NX column (5 μm, 4.6 mm × 250 mm) eluting with 40% MeCN/60% 0.1 M ammonium formate (pH 6.4) at a flow rate of 1.2 mL/min. The eluent was fraction-collected using an automated spectrum chromatography CF-1 fraction collector. Activity in the whole blood, plasma, filtrated plasma-urea mix, filters, and HPLC fractions were counted with automatic gamma well-counter (Wizard 2, PerkinElmer). The sample recovery rate, extraction efficiency, and HPLC fraction recovery were monitored. The unmetabolized [^18F]SDM-16 parent fraction was determined as the ratio of the sum of radioactivity in fractions containing the parent compound to the total amount of radioactivity collected and fitted with inverted Gamma4 approaches.
[^18F]SDM-16 had higher metabolite-corrected plasma SUV than the other SV2A radiotracers, indicating slower plasma clearance and higher metabolic stability (Fig. 2a). Whole-blood and plasma-input functions were highly consistent between the two animals, with a stable plasma to whole-blood ratio of 0.93 ± 0.13 over the entire 180-min acquisition period (Fig. S1).

[4] = Free base fraction in plasma by modified Henderson-Hasselbalch equation (Eq. 1); conditions: Eq. 1, plasma pH 7.4
SV2A [5] = test: Brain PET imaging with 1TC kinetic modeling; conditions: for VT (baseline): 1TC
Protocol: (§1) A total of 10 PET imaging experiments with [^18F]SDM-16 were performed in rhesus monkeys (Macaca mulatta) according to a protocol approved by the Yale University Institutional Animal Care and Use Committee (IACUC). Four monkeys were studied. […] Body temperature was maintained by a water-jacket heating pad. The animal was attached to a physiological monitor, and vital signs (heart rate, blood pressure, respirations, SPO2, EKG, ETCO2, and body temperature) were continuously monitored. A venous line was inserted in one limb for administration of radiotracer, displacement, and blocking drugs. A catheter was placed in the femoral artery in the other limb for blood sampling. Dynamic PET brain scans were performed on a Focus 220 system (Siemens Medical Solutions, Knoxville, TN, USA) with a reconstructed image resolution of approximately 1.5 mm. After a 9-min transmission scan, the radioligand was injected i.v. over 3 min. by an infusion pump. Dynamic PET scans were performed for 3 h (baseline and blocking scans) or 4 h (displacement scan).
(§2) PET images were reconstructed with built-in corrections for attenuation, normalization, scatter, randoms, and deadtime. PET brain images were registered to the animal’s MR image, which was subsequently registered to a brain atlas to define the regions of interest. Dynamic images were reconstructed using a Fourier rebinning and filtered back projection algorithm. A rhesus monkey brain atlas was used for generation of regions of interest (ROIs) and time − activity curves (TACs) for the following ROIs: amygdala, brain stem, caudate nucleus, centrum semiovale (CS), cerebellum, cingulate cortex, frontal cortex, globus pallidus, hippocampus, insula, nucleus accumbens, occipital cortex, pons, putamen, substantia nigra, temporal cortex, and thalamus.
(§3) Volume of distribution (VT, mL·cm^−3) values and the first-order kinetic rate constants of tracer (K1) were derived through 1-tissue (1T) compartment kinetic modeling with the metabolite-corrected arterial plasma input function, which was calculated as the product of the fitted total plasma curve and the parent radiotracer fraction curve. Nondisplaceable volume of distribution (VND) and SV2A occupancy by LEV was calculated using the Lassen plot [32]. Nondisplaceable binding potential (BPND) values were calculated from VT values using CS as reference region, or the VND derived from the blocking study, i.e., BPND = (VT, ROI − VT, CS)/ VT, CS or BPND = (VT/VND) -1.

SV2A [6] = conditions: 1TC, cited from earlier work
SV2A [7] = biological target: SV2A (Macaca mulatta, UniProt H9EQH8); conditions: previously determined; cited from earlier work
Chain of SV2A (Macaca mulatta, UniProt H9EQH8) (H9EQH8 1-742): as the sequence (Q7L0J3 whole entry) above, with G64S, I572V counted along it

[8] = Brain PET imaging with 1TC kinetic modeling; conditions: rhesus monkey
Protocol: as §1, §2, §3

Compound: Cc1cnccc1CN1C[C@@H](c2cc(F)cc(F)c2)CC1=O [SynVesT-1]
- Ki (human SV2A): 3.1 nM

Compound: Cc1cnccc1CN1C[C@@H](c2cc(F)c(F)c(F)c2)CC1=O [UCB-J]
- Ki (human SV2A): 2.6 nM

- logD ([1]; octanol / 1x PBS, pH 7.4): 1.1
- logP [1]: 1.1
- fraction unbound at 5 min [2]: 0.75
- parent fraction in plasma [3]: 70 ± 7%
- fraction present in plasma as free base [4]: 49%
- K1 (SV2A [5]; Amygdala): 0.11 ± 0.01 mL/cm^3 per min
- VT (baseline) (SV2A [5]; Amygdala): 15.6 ± 8.2 mL/cm^3
- K1 (SV2A [5]; Anterior cingulate): 0.15 ± 0.03 mL/cm^3 per min
- K1 (SV2A [5]; Brainstem): 0.15 ± 0.03 mL/cm^3 per min
- VT (baseline) (SV2A [5]; Brainstem): 21.0 ± 4.9 mL/cm^3
- K1 (SV2A [5]; Caudate): 0.13 ± 0.02 mL/cm^3 per min
- K1 (SV2A [5]; Cerebellum): 0.17 ± 0.03 mL/cm^3 per min
- K1 (SV2A [5]; Cingulate cortex): 0.17 ± 0.034 mL/cm^3 per min
- K1 (SV2A [5]; Frontal cortex): 0.15 ± 0.03 mL/cm^3 per min
- VT (baseline) (SV2A [5]; Frontal cortex): 49.0 ± 18.2 mL/cm^3
- K1 (SV2A [5]; Globus pallidus): 0.10 ± 0.01 mL/cm^3 per min
- K1 (SV2A [5]; Hippocampus): 0.12 ± 0.02 mL/cm^3 per min
- VT (baseline) (SV2A [5]; Hippocampus): 31.4 ± 16.6 mL/cm^3
- K1 (SV2A [5]; Insular cortex): 0.15 ± 0.01 mL/cm^3 per min
- VT (baseline) (SV2A [5]; Insular cortex): 57.8 ± 26.9 mL/cm^3
- K1 (SV2A [5]; Mean ± SD over brain regions): 0.14 ± 0.03 mL/cm^3 per min
- K1 (SV2A [5]; Nucleus accumbens): 0.13 ± 0.02 mL/cm^3 per min
- VT (baseline) (SV2A [5]; Nucleus accumbens): 34.1 ± 4.8 mL/cm^3
- K1 (SV2A [5]; Occipital cortex): 0.19 ± 0.03 mL/cm^3 per min
- VT (baseline) (SV2A [5]; Occipital cortex): 47.0 ± 16.6 mL/cm^3
- K1 (SV2A [5]; Putamen): 0.17 ± 0.03 mL/cm^3 per min
- K1 (SV2A [5]; Temporal cortex): 0.14 ± 0.02 mL/cm^3 per min
- VT (baseline) (SV2A [5]; Temporal cortex): 51.4 ± 26.2 mL/cm^3
- K1 (SV2A [5]; Thalamus): 0.14 ± 0.03 mL/cm^3 per min
- SUV (brain tracer uptake) (SV2A [5]; baseline scan, end of scan, frontal cortex and putamen): about 4
Compound: [11CH3]n1cncc1CN1C[C@@H](c2cc(F)cc(F)c2)CC1=O [[^11C]UCB-A]

Compound: [11CH3]c1cnccc1CN1C[C@@H](c2cc(F)c(F)c(F)c2)CC1=O [[^11C]UCB-J]
- logP [1]: 2.46
- fraction unbound at 5 min [2]: 0.46
- parent fraction in plasma [3]: 40 ± 6%
- VT (baseline) (SV2A [6]; Amygdala): 24.4 ± 2.0 mL/cm^3
- VT (baseline) (SV2A [6]; Brainstem): 23.5 ± 2.8 mL/cm^3
- VT (baseline) (SV2A [6]; Caudate): 44.8 ± 4.6 mL/cm^3
- VT (baseline) (SV2A [6]; Centrum semiovale): 13.6 ± 2.9 mL/cm^3
- VT (baseline) (SV2A [6]; Cerebellum): 39.5 ± 5.8 mL/cm^3
- VT (baseline) (SV2A [6]; Cingulate cortex): 55.6 ± 10.0 mL/cm^3
- VT (baseline) (SV2A [6]; Frontal cortex): 55.4 ± 8.2 mL/cm^3
- VT (baseline) (SV2A [6]; Globus pallidus): 27.9 ± 3.0 mL/cm^3
- VT (baseline) (SV2A [6]; Hippocampus): 34.4 ± 2.8 mL/cm^3
- VT (baseline) (SV2A [6]; Insular cortex): 54.6 ± 6.7 mL/cm^3
- VT (baseline) (SV2A [6]; Nucleus accumbens): 53.9 ± 9.2 mL/cm^3
- VT (baseline) (SV2A [6]; Occipital cortex): 52.9 ± 7.0 mL/cm^3
- VT (baseline) (SV2A [6]; Putamen): 45.2 ± 3.0 mL/cm^3
- VT (baseline) (SV2A [6]; Temporal cortex): 50.4 ± 6.9 mL/cm^3
- VT (baseline) (SV2A [6]; Thalamus): 40.3 ± 6.4 mL/cm^3
- VND (SV2A [7]): 6.27 mL/cm^3
- fraction unbound ([8]; brain tissue, intravenous): 0.073
- BPND, VND method (SV2A [5]; Amygdala): 2.77 ± 0.06
- BPND, VT(CS) method (SV2A [5]; Amygdala): 0.85 ± 0.34
- K1 (SV2A [5]; Amygdala): 0.48 ± 0.14 mL/cm^3 per min
- BPND, VND method (SV2A [5]; Anterior cingulate): 6.84 ± 0.18
- BPND, VT(CS) method (SV2A [5]; Anterior cingulate): 2.70 ± 0.74
- K1 (SV2A [5]; Anterior cingulate): 0.73 ± 0.20 mL/cm^3 per min
- BPND, VND method (SV2A [5]; Brainstem): 2.61 ± 0.44
- BPND, VT(CS) method (SV2A [5]; Brainstem): 0.76 ± 0.21
- K1 (SV2A [5]; Brainstem): 0.89 ± 0.17 mL/cm^3 per min
- BPND, VND method (SV2A [5]; Caudate): 5.78 ± 0.43
- BPND, VT(CS) method (SV2A [5]; Caudate): 2.40 ± 0.72
- K1 (SV2A [5]; Caudate): 0.75 ± 0.12 mL/cm^3 per min
- BPND, VND method (SV2A [5]; Cerebellum): 4.43 ± 0.83
- BPND, VT(CS) method (SV2A [5]; Cerebellum): 1.95 ± 0.36
- K1 (SV2A [5]; Cerebellum): 0.81 ± 0.16 mL/cm^3 per min
- BPND, VND method (SV2A [5]; Cingulate cortex): 7.37 ± 1.18
- BPND, VT(CS) method (SV2A [5]; Cingulate cortex): 3.17 ± 0.84
- BPND, VND method (SV2A [5]; Frontal cortex): 7.28 ± 1.00
- BPND, VT(CS) method (SV2A [5]; Frontal cortex): 3.17 ± 0.84
- K1 (SV2A [5]; Frontal cortex): 0.66 ± 0.16 mL/cm^3 per min
- BPND, VND method (SV2A [5]; Globus pallidus): 3.31 ± 0.38
- BPND, VT(CS) method (SV2A [5]; Globus pallidus): 1.10 ± 0.28
- K1 (SV2A [5]; Globus pallidus): 0.65 ± 0.11 mL/cm^3 per min
- in vivo Kd ratio, Kd(tracer)/Kd([^18F]SDM-16) (SV2A [5]; Guo plot of baseline VT): 0.38
- BPND, VND method (SV2A [5]; Hippocampus): 4.47 ± 0.14
- BPND, VT(CS) method (SV2A [5]; Hippocampus): 1.59 ± 0.39
- K1 (SV2A [5]; Hippocampus): 0.61 ± 0.12 mL/cm^3 per min
- BPND, VND method (SV2A [5]; Insular cortex): 7.24 ± 0.73
- BPND, VT(CS) method (SV2A [5]; Insular cortex): 3.12 ± 0.81
- K1 (SV2A [5]; Insular cortex): 0.75 ± 0.17 mL/cm^3 per min
- K1 (SV2A [5]; Mean ± SD over brain regions): 0.72 ± 0.17 mL/cm^3 per min
- BPND, VND method (SV2A [5]; Nucleus accumbens): 7.16 ± 1.13
- BPND, VT(CS) method (SV2A [5]; Nucleus accumbens): 3.12 ± 0.81
- K1 (SV2A [5]; Nucleus accumbens): 0.77 ± 0.17 mL/cm^3 per min
- BPND, VND method (SV2A [5]; Occipital cortex): 7.01 ± 0.88
- BPND, VT(CS) method (SV2A [5]; Occipital cortex): 2.97 ± 0.65
- K1 (SV2A [5]; Occipital cortex): 0.81 ± 0.21 mL/cm^3 per min
- BPND, VND method (SV2A [5]; Putamen): 6.00 ± 0.24
- BPND, VT(CS) method (SV2A [5]; Putamen): 2.42 ± 0.63
- K1 (SV2A [5]; Putamen): 1.03 ± 0.19 mL/cm^3 per min
- BPND, VND method (SV2A [5]; Temporal cortex): 6.57 ± 0.89
- BPND, VT(CS) method (SV2A [5]; Temporal cortex): 2.79 ± 0.61
- K1 (SV2A [5]; Temporal cortex): 0.66 ± 0.14 mL/cm^3 per min
- BPND, VND method (SV2A [5]; Thalamus): 5.21 ± 0.57
- BPND, VT(CS) method (SV2A [5]; Thalamus): 2.03 ± 0.62
- K1 (SV2A [5]; Thalamus): 0.72 ± 0.24 mL/cm^3 per min

- logP [1]: 2.17
- fraction unbound at 5 min [2]: 0.41
- fraction unbound ([8]; in vivo): 0.195
Compound: Cc1cnccc1CN1C[C@@H](c2cccc([18F])c2)CC1=O [[^18F]SynVesT-2]
- VND (SV2A [7]): 2.10 mL/cm^3
